Assay results taken from patent US10023564B2, “G protein-coupled receptor kinase 2 inhibitors and methods for use of the same” (THE REGENTS OF THE UNIVERSITY OF MICHIGAN, priority 2014, dated 2018).

What follows are molecules tested against ROCK1 (Homo sapiens (Human), UniProt Q13464) (assay: Rho-associated coiled-coil kinase (ROCK) assay, ADP-Glo system). Conditions: 0.1 μg ROCK1, 1 μg S6K substrate, 100 μM ATP, 60 min.
Type: biochemical
Description: Rho-associated coiled-coil kinase (ROCK) assays were performed with the ADP-Glo system using 0.1 μg ROCK1 and 1 μg S6K substrate, and 100 μM ATP for 60 min prior to addition of ADP-GLO Reagent, and allowed to incubate for an additional 40 min prior to the addition of the Kinase Detection Reagent and imaging on a PHERASTAR system.

Chain of ROCK1 (Q13464 whole entry, species assumed): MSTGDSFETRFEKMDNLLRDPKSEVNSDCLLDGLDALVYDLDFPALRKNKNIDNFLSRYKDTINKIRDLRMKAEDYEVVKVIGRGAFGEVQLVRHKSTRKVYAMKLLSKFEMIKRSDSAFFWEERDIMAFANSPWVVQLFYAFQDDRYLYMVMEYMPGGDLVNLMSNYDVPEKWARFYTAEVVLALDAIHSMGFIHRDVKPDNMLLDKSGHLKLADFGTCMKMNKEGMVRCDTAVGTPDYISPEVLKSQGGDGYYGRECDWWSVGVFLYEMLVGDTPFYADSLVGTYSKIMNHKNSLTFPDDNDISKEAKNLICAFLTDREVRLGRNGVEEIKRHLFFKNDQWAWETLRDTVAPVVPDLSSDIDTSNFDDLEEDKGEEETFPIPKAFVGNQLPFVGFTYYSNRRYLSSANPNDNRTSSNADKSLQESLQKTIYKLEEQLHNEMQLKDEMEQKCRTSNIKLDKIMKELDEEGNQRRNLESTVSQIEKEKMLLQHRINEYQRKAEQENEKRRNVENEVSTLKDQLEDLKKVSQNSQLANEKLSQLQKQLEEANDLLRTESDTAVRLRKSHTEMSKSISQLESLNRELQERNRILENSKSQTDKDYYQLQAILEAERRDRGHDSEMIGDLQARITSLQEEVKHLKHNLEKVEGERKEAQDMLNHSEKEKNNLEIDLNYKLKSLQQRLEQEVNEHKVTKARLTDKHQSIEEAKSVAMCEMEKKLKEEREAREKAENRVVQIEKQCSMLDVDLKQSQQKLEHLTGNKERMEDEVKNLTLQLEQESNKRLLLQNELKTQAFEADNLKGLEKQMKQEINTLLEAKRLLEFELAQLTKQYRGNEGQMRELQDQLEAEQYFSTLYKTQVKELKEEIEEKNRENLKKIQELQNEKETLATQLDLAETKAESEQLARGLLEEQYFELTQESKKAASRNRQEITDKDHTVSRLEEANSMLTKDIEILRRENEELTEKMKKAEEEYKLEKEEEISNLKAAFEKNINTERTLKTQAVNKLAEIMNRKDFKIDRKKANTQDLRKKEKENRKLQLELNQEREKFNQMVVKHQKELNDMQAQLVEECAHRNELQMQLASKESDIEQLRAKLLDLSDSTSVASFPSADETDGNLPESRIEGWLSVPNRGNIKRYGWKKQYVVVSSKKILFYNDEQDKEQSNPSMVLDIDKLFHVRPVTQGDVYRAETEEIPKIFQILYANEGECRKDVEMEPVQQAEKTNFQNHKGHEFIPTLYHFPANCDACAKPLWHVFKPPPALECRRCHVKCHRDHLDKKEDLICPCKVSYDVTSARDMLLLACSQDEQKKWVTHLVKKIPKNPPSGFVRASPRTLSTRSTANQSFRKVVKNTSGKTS

Row | SMILES | IC50
1 | CNC(=O)c1cc(C2NC(=O)NC(C)=C2C(=O)Nc2ccc3[nH]ncc3c2)ccc1F (stereo not drawn) [Example E12, 4-(4-fluoro-3-(methylcarbamoyl)phenyl)-N-(1H-indazol-5-yl)-6-methyl-2-oxo-1,2,3,4-tetrahydropyrimidine-5-carboxamide] | 190 nM
2 | CC1=C(C(=O)Nc2ccc3[nH]ncc3c2)C(c2ccc(F)c(C(=O)NCc3c(C)cccc3C)c2)NC(=O)N1 (stereo not drawn) [Example E10, 4-(3-((2,6-dimethylbenzyl)carbamoyl)-4-fluorophenyl)-N-(1H-indazol-5-yl)-6-methyl-2-oxo-1,2,3,4-tetrahydropyrimidine-5 carboxamide] | 5800 nM
3 | CC1=C(C(=O)Nc2ccc3[nH]ncc3c2)C(c2ccc(F)c(CC(=O)NCc3c(C)cccc3C)c2)NC(=O)N1 (stereo not drawn) [Example E28, 4-(3-(2-((2,6-dimethylbenzyl)amino)-2-oxoethyl)-4-fluorophenyl)-N-(1H-indazol-5-yl)-6-methyl-2-oxo-1,2,3,4-tetrahydropyrimidine-5-carboxamide] | 450 nM
4 | COc1ccc(CNC(=O)c2cc(C3NC(=O)NC(C)=C3C(=O)Nc3ccc4[nH]ncc4c3)ccc2F)cc1 (stereo not drawn) [Example E06, 4-(4-fluoro-3-((4-methoxybenzyl)carbamoyl)phenyl)-N-(1H-indazol-5-yl)-6-methyl-2-oxo-1,2,3,4-tetrahydropyrimidine-5-carboxamide] | 50 nM
5 | CC1=C(C(=O)Nc2ccc3[nH]ncc3c2)C(c2ccc(F)c(C(=O)NCc3cc(C(F)(F)F)cc(C(F)(F)F)c3)c2)NC(=O)N1 (stereo not drawn) [Example E13, 4-(3-((3,5-bis(trifluoromethyl)benzyl)carbamoyl)-4-fluorophenyl)-N-(1H-indazol-5-yl)-6-methyl-2-oxo-1,2,3,4-tetrahydropyrimidine-5-carboxamide] | 1900 nM
6 | CC1=C(C(=O)Nc2ccc3[nH]ncc3c2)C(c2ccc(F)c(C(=O)NCc3ccccn3)c2)NC(=O)N1 (stereo not drawn) [Example E01, 4-(4-fluoro-3-((pyridin-2-ylmethyl)carbamoyl)phenyl)-N-(1H-indazol-5-yl)-6-methyl-2-oxo-1,2,3,4-tetrahydropyrimidine-5-carboxamide] | 11 nM
7 | COc1cccc(CNC(=O)c2cc(C3NC(=O)NC(C)=C3C(=O)Nc3ccc4[nH]ncc4c3)ccc2F)c1 (stereo not drawn) [Example E18, 4-(4-fluoro-3-((3-methoxybenzyl)carbamoyl)phenyl)-N-(1H-indazol-5-yl)-6-methyl-2-oxo-1,2,3,4-tetrahydropyrimidine-5-carboxamide] | 97 nM
8 | COc1cccc(OC)c1CNC(=O)c1cc(C2NC(=O)NC(C)=C2C(=O)Nc2ccc3[nH]ncc3c2)ccc1F (stereo not drawn) [Example E11, 4-(3-((2,6-dimethoxybenzyl)carbamoyl)-4-fluorophenyl)-N-(1H-indazol-5-yl)-6-methyl-2-oxo-1,2,3,4-tetrahydropyrimidine-5-carboxamide] | > 10000 nM
9 | CC1=C(C(=O)Nc2ccc3[nH]ncc3c2)C(c2ccc(F)c(C(=O)NCc3c(C(F)(F)F)cccc3C(F)(F)F)c2)NC(=O)N1 (stereo not drawn) [Example E17, 4-(3-((2,6-bis(trifluoromethyl)benzyl)carbamoyl)-4-fluorophenyl)-N-(1H-indazol-5-yl)-6-methyl-2-oxo-1,2,3,4-tetrahydropyrimidine-5-carboxamide] | > 10000 nM
10 | COc1cccc(OC)c1CNC(=O)Cc1cc(C2NC(=O)NC(C)=C2C(=O)Nc2ccc3[nH]ncc3c2)ccc1F (stereo not drawn) [Example E30, 4-(3-(2-((2,6-dimethoxybenzyl)amino)-2-oxoethyl)-4-fluorophenyl)-N-(1H-indazol-5-yl)-6-methyl-2-oxo-1,2,3,4-tetrahydropyrimidine-5-carboxamide] | 200 nM
11 | CC1=C(C(=O)Nc2ccc3[nH]ncc3c2)C(c2ccc(F)c(C(=O)NCc3ncccc3C)c2)NC(=O)N1 (stereo not drawn) [Example E15, 4-(4-fluoro-3-(((3-methylpyridin-2-yl)methyl)carbamoyl)phenyl)-N-(1H-indazol-5-yl)-6-methyl-2-oxo-1,2,3,4-tetrahydropyrimidine-5-carboxamide] | 150 nM
12 | CC1=C(C(=O)Nc2ccc3[nH]ncc3c2)C(c2ccc(F)cc2)NC(=O)N1 (stereo not drawn) [GSK180736A, reference compound] | 78 nM
13 | CC1=C(C(=O)Nc2ccc3[nH]ncc3c2)C(c2ccc(F)c(C(=O)NCCc3c(C)cccc3C)c2)NC(=O)N1 (stereo not drawn) [Example E14, 4-(3-((2,6-dimethylphenethyl)carbamoyl)-4-fluorophenyl)-N-(1H-indazol-5-yl)-6-methyl-2-oxo-1,2,3,4-tetrahydropyrimidine-5-carboxamide] | 290 nM
14 | CC1=C(C(=O)Nc2ccc3[nH]ncc3c2)C(c2ccc(F)c(C(=O)NCc3cccc(F)c3)c2)NC(=O)N1 (stereo not drawn) [Example E04, 4-(4-fluoro-3-((3-fluorobenzyl)carbamoyl)phenyl)-N-(1H-indazol-5-yl)-6-methyl-2-oxo-1,2,3,4-tetrahydropyrimidine-5-carboxamide] | 21 nM
15 | CC1=C(C(=O)Nc2ccc3[nH]ncc3c2)C(c2ccc(F)c(C(=O)NCc3ccccc3)c2)NC(=O)N1 (stereo not drawn) [Example E16, 4-(3-(benzylcarbamoyl)-4-fluorophenyl)-N-(1H-indazol-5-yl)-6-methyl-2-oxo-1,2,3,4-tetrahydropyrimidine-5-carboxamide] | 69 nM
16 | CC1=C(C(=O)Nc2ccc3[nH]ncc3c2)C(c2ccc(F)c(CC(=O)NCc3c(C(F)(F)F)cccc3C(F)(F)F)c2)NC(=O)N1 (stereo not drawn) [Example E29, 4-(3-(2-((2,6-bis(trifluoromethyl)benzyl)amino)-2-oxoethyl)-4-fluorophenyl)-N-(1H-indazol-5-yl)-6-methyl-2-oxo-1,2,3,4-tetrahydropyrimidine-5-carboxamide] | 400 nM
17 | CC1=C(C(=O)Nc2ccc3[nH]ncc3c2)C(c2ccc(F)c(C(=O)NCCc3ccncc3)c2)NC(=O)N1 (stereo not drawn) [Example E07, 4-(4-fluoro-3-((2-(pyridin-4-yl)ethyl)carbamoyl)phenyl)-N-(1H-indazol-5-yl)-6-methyl-2-oxo-1,2,3,4-tetrahydropyrimidine-5-carboxamide] | > 100000 nM
18 | CC1=C(C(=O)Nc2ccc3[nH]ncc3c2)C(c2ccc(F)c(C(=O)NCCc3ccccn3)c2)NC(=O)N1 (stereo not drawn) [Example E03, 4-(4-fluoro-3-((2-(pyridin-2-yl)ethyl)carbamoyl)phenyl)-N-(1H-indazol-5-yl)-6-methyl-2-oxo-1,2,3,4-tetrahydropyrimidine-5-carboxamide] | 23 nM
19 | CC1=C(C(=O)Nc2ccc3[nH]ncc3c2)C(c2ccc(F)c(C(=O)NCc3c(Cl)cccc3Cl)c2)NC(=O)N1 (stereo not drawn) [Example E09, 4-(3-((2,6-dichlorobenzyl)carbamoyl)-4-fluorophenyl)-N-(1H-indazol-5-yl)-6-methyl-2-oxo-1,2,3,4-tetrahydropyrimidine-5-carboxamide] | 6700 nM

What follows are molecules tested against GRK2 (Homo sapiens (Human), UniProt P25098) (assay: GRK2 kinetic assay (phosphorylation of bROS or tubulin, phosphorimaging)). Conditions: 50 nM GRK, 5 μM ATP, 5 min reaction.
Chain of GRK2 (P25098 whole entry, species assumed): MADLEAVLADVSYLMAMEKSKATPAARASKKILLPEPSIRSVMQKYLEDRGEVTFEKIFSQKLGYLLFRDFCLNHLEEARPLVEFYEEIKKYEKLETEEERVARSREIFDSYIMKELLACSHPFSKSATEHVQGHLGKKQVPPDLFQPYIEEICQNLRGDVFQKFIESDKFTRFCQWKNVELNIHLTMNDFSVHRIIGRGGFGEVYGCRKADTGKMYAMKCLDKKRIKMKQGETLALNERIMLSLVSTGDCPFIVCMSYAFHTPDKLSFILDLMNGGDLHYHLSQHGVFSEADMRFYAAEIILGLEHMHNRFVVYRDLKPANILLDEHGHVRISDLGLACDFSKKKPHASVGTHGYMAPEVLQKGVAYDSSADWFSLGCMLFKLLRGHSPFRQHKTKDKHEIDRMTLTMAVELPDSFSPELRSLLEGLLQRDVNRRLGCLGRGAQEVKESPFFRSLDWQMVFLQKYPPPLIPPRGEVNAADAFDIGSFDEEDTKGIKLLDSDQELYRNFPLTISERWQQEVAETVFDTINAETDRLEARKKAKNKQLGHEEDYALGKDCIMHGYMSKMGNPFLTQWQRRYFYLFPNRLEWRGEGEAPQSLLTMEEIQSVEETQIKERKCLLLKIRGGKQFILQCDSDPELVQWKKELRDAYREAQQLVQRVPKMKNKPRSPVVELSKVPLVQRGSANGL
Type: biochemical
Description: The low salt concentration and DDM were used to maximize GRK activity and disrupt small molecule aggregates from forming, respectively. […] Data was analyzed and inhibition curves were fit via GraphPad Prism.

Row | SMILES | IC50
20 | CC1=C(C(=O)Nc2ccc3[nH]ncc3c2)C(c2ccc(F)c(C(=O)N(C)CC3CCCCO3)c2)NC(=O)N1 (stereo not drawn) [Example E21, 4-(4-fluoro-3-(methyl((tetrahydro-2H-pyran-2-yl)methyl)carbamoyl)phenyl)-N-(1H-indazol-5-yl)-6-methyl-2-oxo-1,2,3,4-tetrahydropyrimidine-5-carboxamide] | 14600 nM
21 | CC1=C(C(=O)Nc2ccc3[nH]ncc3c2)C(c2ccc(F)c(CC(=O)N3CCOC(CCO)C3)c2)NC(=O)N1 (stereo not drawn) [Example E31, 4-(4-fluoro-3-(2-(2-(2-hydroxyethyl)morpholino)-2-oxoethyl)phenyl)-N-(1H-indazol-5-yl)-6-methyl-2-oxo-1,2,3,4-tetrahydropyrimidine-5-carboxamide] | 1500 nM
22 | C#CCN(Cc1ccco1)C(=O)Cc1cc(C2NC(=O)NC(C)=C2C(=O)Nc2ccc3[nH]ncc3c2)ccc1F (stereo not drawn) [Example E35, 4-(4-fluoro-3-(2-((furan-2-ylmethyl)(prop-2-yn-1-yl)amino)-2-oxoethyl)phenyl)-N-(1H-indazol-5-yl)-6-methyl-2-oxo-1,2,3,4-tetrahydropyrimidine-5-carboxamide] | 960 nM
23 | CC1=C(C(=O)Nc2ccc3[nH]ncc3c2)C(c2ccc(F)c(CC(=O)N(CCO)Cc3ccco3)c2)NC(=O)N1 (stereo not drawn) [Example E32, 4-(4-fluoro-3-(2-((furan-2-ylmethyl)(2-hydroxyethyl)amino)-2-oxoethyl)phenyl)-N-(1H-indazol-5-yl)-6-methyl-2-oxo-1,2,3,4-tetrahydropyrimidine-5-carboxamide] | 500 nM
24 | COc1ccccc1C(C)NC(=O)c1cc(C2NC(=O)NC(C)=C2C(=O)Nc2ccc3[nH]ncc3c2)ccc1F (stereo not drawn) [Example E27, 4-(4-fluoro-3-((1-(2-methoxyphenyl)ethyl)carbamoyl)phenyl)-N-(1H-indazol-5-yl)-6-methyl-2-oxo-1,2,3,4-tetrahydropyrimidine-5-carboxamide] | 320 nM
25 | CC1=C(C(=O)Nc2ccc3[nH]ncc3c2)C(c2ccc(F)c(CCC(=O)NCCc3ccccc3)c2)NC(=O)N1 (stereo not drawn) [Example E38, 4-(4-fluoro-3-(3-oxo-3-(phenethylamino)propyl)phenyl)-N-(1H-indazol-5-yl)-6-methyl-2-oxo-1,2,3,4-tetrahydropyrimidine-5-carboxamide] | 7000 nM
26 | COCc1noc(CNC(=O)c2cc(C3NC(=O)NC(C)=C3C(=O)Nc3ccc4[nH]ncc4c3)ccc2F)n1 (stereo not drawn) [Example E24, 4-(4-fluoro-3-(((3-(methoxymethyl)-1,2,4-oxadiazol-5-yl)methyl)carbamoyl)phenyl)-N-(1H-indazol-5-yl)-6-methyl-2-oxo-1,2,3,4-tetrahydropyrimidine-5-carboxamide] | 240 nM
27 | C#CCN(CC(C)C)C(=O)Cc1cc(C2NC(=O)NC(C)=C2C(=O)Nc2ccc3[nH]ncc3c2)ccc1F (stereo not drawn) [Example E36, 4-(4-fluoro-3-(2-(isobutyl(prop-2-yn-1-yl)amino)-2-oxoethyl)phenyl)-N-(1H-indazol-5-yl)-6-methyl-2-oxo-1,2,3,4-tetrahydropyrimidine-5-carboxamide] | 2600 nM
